The record followed here is patent publication US9115122B2, “Non-ATP dependent inhibitors of extracellular signal-regulated kinase (ERK)” (UNIVERSITY OF MARYLAND, BALTIMORE, priority 2012, dated 2015).

The target in assay [1] is ERK2 Y191A (Rattus norvegicus (Rat), UniProt P63086, Y191A). The assay is described as follows: Fluorescence quenching (FQ) binding affinity. The following applies: read-out: KD Y191A (Site 2).
Assay [2] deals with ERK2 L265A (Rattus norvegicus (Rat), UniProt P63086, L265A). The experiment in a line: Fluorescence quenching (FQ) binding affinity. The following applies: read-out: KD L265A (Site 4).
For assay [3], the target named is ERK2 L198A/L232A (Rattus norvegicus (Rat), UniProt P63086, L198A/L232A). The assay is described as follows: Fluorescence quenching (FQ) binding affinity. The following applies: read-out: KD L198A/L232A (Site 5).
In assay [4] the target is ERK2 L198A/L235A (Rattus norvegicus (Rat), UniProt P63086, L198A/L235A). The assay is described as follows: Fluorescence quenching (FQ) binding affinity. The following applies: read-out: KD L198A/L235A (Site 5).
Assay [5] relates to ERK2 vs p38α MAP kinase. The experiment in a line: Selectivity for ERK2 compared to p38α MAP kinase. It is filed as binding.
The subject of assay [6] is c-Fos, Fra1, and FosB expression. The assay is described as follows: Immunoblot of EGF-induced c-Fos, Fra1 and FosB expression in HeLa cells. It is filed as cell-based. The following applies: EGF 25 ng/mL. The method, then: FIG. 3. EGF-mediated induction of AP-1 proteins is inhibited by SF-3-026 and SF-3-030. (a) HeLa cells were treated for 10, 30, or 60 min. with EGF (25 ng/mL) in the presence of 50 μM SF-3-026 or 10 μM U0126. Protein lysates were immunoblotted for c-Fos, Fra1, FosB and FosB2. Phosphorylated ERK1/2 is not affected by SF-3-026 and α-tubulin expression is shown for a protein loading control. (b) Protein lysates from HeLa cells treated for 30 min. with EGF in the absence or presence of 10, 25, 50, or 100 μM of SF-3-026 or SF-3-030 were immunoblotted for c-Fos, Fra1, FosB, FosB2, as well as phosphorylated ERK1/2 and MEK1/2. Total ERK2 and α-tubulin expression are shown for protein loading controls. Data are representative of three independent experiments.
Analysis of protein expression levels, activity, and cell proliferation were done as previously described. […] Proteins were separated by SDS-PAGE, analyzed by immunoblotting, and detected using enhanced chemiluminescence (ECL, GE Healthcare, United Kingdom).
The reported half-life for c-Fos is ˜10 minutes and growth factor-mediated stabilization of c-Fos protein expression can be observed within 30-60 minutes, whereas stabilization of Fra1 protein is delayed due to AP-1 regulation of the Fra1 promoter. Thus, growth factor-mediated induction of c-Fos, Fra1, and FosB expression was evaluated following treatment with SF-3-026. […]

Sequence of ERK2 L265A (P63086 whole entry L265A): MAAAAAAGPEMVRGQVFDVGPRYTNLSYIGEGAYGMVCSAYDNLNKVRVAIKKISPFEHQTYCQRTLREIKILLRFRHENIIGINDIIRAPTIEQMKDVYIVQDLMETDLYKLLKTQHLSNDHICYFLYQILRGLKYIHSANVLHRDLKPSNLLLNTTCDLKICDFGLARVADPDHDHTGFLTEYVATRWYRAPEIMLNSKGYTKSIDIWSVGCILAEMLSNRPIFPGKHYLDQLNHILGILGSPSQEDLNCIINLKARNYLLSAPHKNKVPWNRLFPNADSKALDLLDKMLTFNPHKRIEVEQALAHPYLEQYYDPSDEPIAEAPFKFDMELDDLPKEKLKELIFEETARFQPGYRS
Sequence of ERK2 Y191A (P63086 whole entry Y191A): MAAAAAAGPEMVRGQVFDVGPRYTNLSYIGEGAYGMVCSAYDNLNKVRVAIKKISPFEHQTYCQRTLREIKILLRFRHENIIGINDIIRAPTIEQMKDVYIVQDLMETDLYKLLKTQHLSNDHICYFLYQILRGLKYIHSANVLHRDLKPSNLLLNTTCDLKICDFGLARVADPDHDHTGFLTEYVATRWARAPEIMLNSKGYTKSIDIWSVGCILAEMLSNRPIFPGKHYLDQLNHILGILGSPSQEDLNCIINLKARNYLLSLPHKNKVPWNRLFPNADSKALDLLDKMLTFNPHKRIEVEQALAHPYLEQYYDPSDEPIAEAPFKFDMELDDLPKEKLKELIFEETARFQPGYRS
Sequence of ERK2 L198A/L232A (P63086 whole entry L198A/L232A): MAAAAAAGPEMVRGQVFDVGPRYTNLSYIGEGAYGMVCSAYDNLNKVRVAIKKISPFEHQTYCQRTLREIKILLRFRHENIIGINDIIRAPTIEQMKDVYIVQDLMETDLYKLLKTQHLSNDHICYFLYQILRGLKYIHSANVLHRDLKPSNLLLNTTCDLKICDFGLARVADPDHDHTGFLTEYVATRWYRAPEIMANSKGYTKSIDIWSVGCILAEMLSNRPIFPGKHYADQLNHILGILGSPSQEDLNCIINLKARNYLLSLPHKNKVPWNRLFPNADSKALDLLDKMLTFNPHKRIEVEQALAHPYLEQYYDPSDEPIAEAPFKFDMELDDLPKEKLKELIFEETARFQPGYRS
Sequence of ERK2 L198A/L235A (P63086 whole entry L198A/L235A): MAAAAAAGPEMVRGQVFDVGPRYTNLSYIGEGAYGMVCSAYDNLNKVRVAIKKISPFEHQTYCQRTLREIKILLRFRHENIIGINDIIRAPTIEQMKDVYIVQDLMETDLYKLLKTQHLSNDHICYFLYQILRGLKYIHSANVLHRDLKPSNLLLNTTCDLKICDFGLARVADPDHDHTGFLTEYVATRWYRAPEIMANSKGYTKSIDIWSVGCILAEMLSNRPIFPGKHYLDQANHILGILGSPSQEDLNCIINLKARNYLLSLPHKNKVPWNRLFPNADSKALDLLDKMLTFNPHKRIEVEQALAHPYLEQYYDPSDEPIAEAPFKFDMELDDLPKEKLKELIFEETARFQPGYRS

Turning to `O=S1(=O)C=CC(OS(=O)(=O)c2ccccc2)C1` (stereo not drawn) [SF-3-026], the Kd in assay [1] was 130 nM; in assay [2] it was 280 nM; in assay [3], 140 ± 20 nM; in assay [4] it was over 20000 nM. In addition, the “selectivity for ERK2 as compared to p38α MAP kinase” value in assay [5] is given as about 150 fold. Besides, the “inhibition of EGF-induced c-Fos, Fra1, and FosB expression” value in assay [6] was “dramatic inhibition”.
